Measured values taken from PMC7722354, “7-Substituted 2-Nitro-5,6-dihydroimidazo[2,1-b][1,3]oxazines: Novel Antitubercular Agents Lead to a New Preclinical Candidate for Visceral Leishmaniasis” (Journal of Medicinal Chemistry, 2017).
pIC50: −log10 of the molar value. Values after ≈ are worked out from the molar mass of the structure shown.

Legend:
M. tb, strain H37Rv [1] = experiment: MABA minimum inhibitory concentration assay (aerobic); assay type: cell-based, Mycobacterium tuberculosis
Leishmania donovani = experiment: L. don amastigote mouse macrophage-based luciferase assay (CDRI); assay type: cell-based; conditions: in mouse macrophages, single test (CDRI)
M. tb, strain H37Rv [2] = experiment: LORA minimum inhibitory concentration assay (hypoxic); assay type: cell-based; conditions: Mycobacterium tuberculosis
Trypanosoma cruzi = experiment: T. cruzi growth inhibition on MRC-5 cells (LMPH); assay type: cell-based; conditions: MRC5
[3] = tested on: human lung fibroblasts (MRC-5 cells); experiment: cytotoxicity toward MRC-5 cells (LMPH); assay type: cell-based; conditions: MRC5
Leishmania infantum = experiment: L. inf growth inhibition in mouse macrophages (LMPH); assay type: cell-based; conditions: Macrophage, mean of at least two determinations
[4] = Mycobacterium tuberculosis, H37RV, read-out: MIC MABA, aerobic
[5] = Mycobacterium tuberculosis, H37RV, aerobic, read-out: MIC MABA

SMILES	MIC (M. tb, strain H37Rv [1]; [4]) [µM]	pIC50 (Leishmania donovani)	MIC (M. tb, strain H37Rv [2]) [µM]	pIC50 (Trypanosoma cruzi)	pIC50 [3]	pIC50 (Leishmania infantum)	MIC (M. tb, strain H37Rv [1]; [5]) [µM]	MIC (M. tb, strain H37Rv [1]; aerobic, read-out: MIC MABA) [µM]
O=[N+]([O-])c1cn2c(n1)OC(COc1ccc(-c3ccc(F)nc3)cn1)CC2 (centres unmarked) [compound 107]	0.074 (≈ 0.0275 µg/mL)	6.57	15 (≈ 5.57 µg/mL)	–	–	–	–	–
O=[N+]([O-])c1cn2c(n1)OC(COc1cccc(-c3ccc(F)cc3F)n1)CC2 (centres unmarked) [compound 102]	> 128	6.60	> 128	6.64	< 4.19	5.40	–	–
CC1(CN2CCN(C(=O)c3ccc(F)cc3)CC2)CCn2cc([N+](=O)[O-])nc2O1 (centres unmarked) [compound 159]	–	5.55	> 128	5.55	< 4.19	5.19	93 (≈ 37.5 µg/mL)	–
O=[N+]([O-])c1cn2c(n1)O[C@H](COc1ccc(-c3ccc(OC(F)(F)F)cc3)nc1)CC2 [compound 95]	0.34 (≈ 0.148 µg/mL)	–	1.6 (≈ 0.698 µg/mL)	–	–	–	–	–
CC1(COc2ccc(-c3ccc(F)cn3)cn2)CCn2cc([N+](=O)[O-])nc2O1 (centres unmarked) [compound 106]	–	6.82	9.5 (≈ 3.66 µg/mL)	6.60	< 4.19	6.47	0.4 (≈ 0.154 µg/mL)	–
CC1(COc2cccc(-c3ccc(F)nc3F)n2)CCn2cc([N+](=O)[O-])nc2O1 (centres unmarked) [compound 120]	–	–	7.9 (≈ 3.19 µg/mL)	6.31	< 4.19	6.23	9.3 (≈ 3.75 µg/mL)	–
CC1(COCc2ccc(-c3ccc(OC(F)(F)F)cc3)cc2)CCn2cc([N+](=O)[O-])nc2O1 (centres unmarked) [compound 29]	0.093 (≈ 0.0431 µg/mL)	–	1.4 (≈ 0.649 µg/mL)	–	–	–	–	–
CC1(COc2ccc(-c3ccc(F)cc3)nc2)CCn2cc([N+](=O)[O-])nc2O1 (centres unmarked) [compound 90]	0.35 (≈ 0.135 µg/mL)	6.19	3.9 (≈ 1.5 µg/mL)	–	–	–	–	–
C[C@@]1(COCc2ccc(-c3ccc(OC(F)(F)F)cc3)cc2)CCn2cc([N+](=O)[O-])nc2O1 [compound 38]	0.74 (≈ 0.343 µg/mL)	–	6.8 (≈ 3.15 µg/mL)	–	–	–	–	–
O=[N+]([O-])c1cn2c(n1)OC(COc1ccc(-c3ccc(OC(F)(F)F)cc3)nc1)CC2 (centres unmarked) [compound 93]	0.02 to 0.04 (≈ 0.00873 to 0.0175 µg/mL)	7.30	0.86 (≈ 0.375 µg/mL)	–	–	–	–	0.032 (≈ 0.014 µg/mL)
CC1(COCc2ccc(OCc3ccccc3)cc2)CCn2cc([N+](=O)[O-])nc2O1 (centres unmarked) [compound 23]	–	6.55	1.4 (≈ 0.573 µg/mL)	–	–	–	0.2 (≈ 0.0819 µg/mL)	–
CC1(COc2ccc(-c3ccc(F)nc3F)cn2)CCn2cc([N+](=O)[O-])nc2O1 (centres unmarked) [compound 110]	–	–	6.6 (≈ 2.66 µg/mL)	6.37	< 4.19	6.70	1 (≈ 0.403 µg/mL)	–
O=[N+]([O-])c1cn2c(n1)OC(COC1CCN(c3ccc(F)cc3)CC1)CC2 (centres unmarked) [compound 170]	0.78 (≈ 0.294 µg/mL)	–	20 (≈ 7.53 µg/mL)	–	–	–	–	–
O=[N+]([O-])c1cn2c(n1)OC(COc1ccc(-c3ccc(F)nc3)nc1)CC2 (centres unmarked) [compound 112]	2.3 (≈ 0.854 µg/mL)	7.05	21 (≈ 7.8 µg/mL)	–	–	–	–	–
CC1(COc2ccc(-c3ccc(F)cc3)cn2)CCn2cc([N+](=O)[O-])nc2O1 (centres unmarked) [compound 61]	0.17 (≈ 0.0653 µg/mL)	7.05	1 (≈ 0.384 µg/mL)	–	–	–	–	–
CC1(COc2ccc(-c3ccc(F)nc3)nc2)CCn2cc([N+](=O)[O-])nc2O1 (centres unmarked) [compound 113]	2.7 (≈ 1.04 µg/mL)	7.05	43 (≈ 16.6 µg/mL)	–	–	–	–	–
CC1(COc2ccc(-c3ccc(F)cc3F)cn2)CCn2cc([N+](=O)[O-])nc2O1 (centres unmarked) [compound 63]	–	–	2.5 (≈ 1.01 µg/mL)	6.68	< 4.19	6.96	0.089 (≈ 0.0358 µg/mL)	–
O=[N+]([O-])c1cn2c(n1)OC(COc1ccc(-c3ccc(C(F)(F)F)nc3)nc1)CC2 (centres unmarked) [compound 116]	0.12 (≈ 0.0506 µg/mL)	7.15	58 (≈ 24.4 µg/mL)	–	–	–	–	–

SMILES	MIC (M. tb, strain H37Rv [1]; [4]) [µM]	pIC50 (Leishmania donovani)	MIC (M. tb, strain H37Rv [2]) [µM]	pIC50 (Trypanosoma cruzi)	pIC50 [3]	pIC50 (Leishmania infantum)	MIC (M. tb, strain H37Rv [1]; [5]) [µM]	MIC (M. tb, strain H37Rv [1]; aerobic, read-out: MIC MABA) [µM]
O=[N+]([O-])c1cn2c(n1)OC(COc1ccc(-c3ccc(C(F)(F)F)nc3)cn1)CC2 (centres unmarked) [compound 111]	0.09 (≈ 0.0379 µg/mL)	6.89	2.5 (≈ 1.05 µg/mL)	–	–	–	–	–
CC1(COc2cccc(-c3ccc(F)cc3F)n2)CCn2cc([N+](=O)[O-])nc2O1 (centres unmarked) [compound 103]	–	–	4.8 (≈ 1.93 µg/mL)	6.66	< 4.19	6.62	0.69 (≈ 0.278 µg/mL)	–
CC1(COc2ccc(-c3ccc(OC(F)(F)F)cc3)cc2)CCn2cc([N+](=O)[O-])nc2O1 (centres unmarked) [compound 54]	0.11 (≈ 0.0494 µg/mL)	6.28	1.3 (≈ 0.584 µg/mL)	–	–	–	–	–
CC1(COc2cccc(-c3ccc(F)cc3)n2)CCn2cc([N+](=O)[O-])nc2O1 (centres unmarked) [compound 101]	–	–	5 (≈ 1.92 µg/mL)	6.46	< 4.19	6.74	0.94 (≈ 0.361 µg/mL)	–
CC1(COc2ccc(-c3ccc(F)nc3)cn2)CCn2cc([N+](=O)[O-])nc2O1 (centres unmarked) [compound 108]	1.9 (≈ 0.732 µg/mL)	6.66	6.2 (≈ 2.39 µg/mL)	–	–	–	–	–
CC1(COC2CCN(c3ccc(F)cc3)CC2)CCn2cc([N+](=O)[O-])nc2O1 (centres unmarked) [compound 178]	0.37 (≈ 0.144 µg/mL)	–	19 (≈ 7.42 µg/mL)	–	–	–	–	–
CC1(COc2ccc(OCc3ccccc3)cc2)CCn2cc([N+](=O)[O-])nc2O1 (centres unmarked) [compound 47]	–	6.92	> 128	–	–	–	0.44 (≈ 0.174 µg/mL)	–
O=[N+]([O-])c1cn2c(n1)OC(COc1ccc(-c3ccc(F)cc3F)nc1)CC2 (centres unmarked) [compound 91]	0.36 (≈ 0.14 µg/mL)	7.70	8.9 (≈ 3.46 µg/mL)	–	–	–	–	–
O=[N+]([O-])c1cn2c(n1)OC(COCc1ccc(OCc3ccccc3)cc1)CC2 (centres unmarked) [compound 22]	–	7.30	3 (≈ 1.19 µg/mL)	–	–	–	–	–
O=[N+]([O-])c1cn2c(n1)OC(COc1ccc(OCc3ccccc3)cc1)CC2 (centres unmarked) [compound 45]	> 128	7.70	> 128	–	–	–	–	–
CC1(COc2cccc(-c3ccc(F)nc3)n2)CCn2cc([N+](=O)[O-])nc2O1 (centres unmarked) [compound 118]	–	–	7.8 (≈ 3.01 µg/mL)	6.28	< 4.19	5.96	11 (≈ 4.24 µg/mL)	–
O=[N+]([O-])c1cn2c(n1)OC(COc1ccc(-c3ccc(OC(F)(F)F)cc3)cc1)CC2 (centres unmarked) [compound 53]	0.08 (≈ 0.0348 µg/mL)	7.22	0.73 (≈ 0.318 µg/mL)	–	–	–	–	–
O=[N+]([O-])c1cn2c(n1)OC(COc1ccc(OC(F)(F)F)cc1)CC2 (centres unmarked) [compound 39]	5.2 (≈ 1.87 µg/mL)	7.40	4.7 (≈ 1.69 µg/mL)	–	–	–	–	–
O=[N+]([O-])c1cn2c(n1)OC(CN1CCC(Oc3ccc(F)cc3)CC1)CC2 (centres unmarked) [compound 152]	2 (≈ 0.753 µg/mL)	6.35	22 (≈ 8.28 µg/mL)	–	–	–	–	–
O=[N+]([O-])c1cn2c(n1)OC(COc1ccc(-c3ccc(F)cc3)cn1)CC2 (centres unmarked) [compound 59, 7-({[5-(4-Fluorophenyl)pyridin-2-yl]oxy}methyl)-2-nitro-6,7-dihydro-5H-imidazo[2,1-b][1,3]oxazine]	0.02 to 0.04 (≈ 0.00741 to 0.0148 µg/mL)	8.00	< 0.25	–	–	–	–	0.025 (≈ 0.00926 µg/mL)
C[C@]1(COCc2ccc(-c3ccc(OC(F)(F)F)cc3)cc2)CCn2cc([N+](=O)[O-])nc2O1 [compound 34, (7R)-7-Methyl-2-nitro-7-({[4′-(trifluoromethoxy)[1,1′-biphenyl]-4-yl]methoxy}methyl)-6,7-dihydro-5H-imidazo[2,1-b][1,3]oxazine]	0.063 (≈ 0.0292 µg/mL)	6.62	1.1 (≈ 0.51 µg/mL)	–	–	–	–	–
O=[N+]([O-])c1cn2c(n1)OC(CN1CCN(c3ccc(F)cc3)CC1)CC2 (centres unmarked) [compound 142, 7-{[4-(4-Fluorophenyl)piperazin-1-yl]methyl}-2-nitro-6,7-dihydro-5H-imidazo[2,1-b][1,3]oxazine]	1.8 (≈ 0.65 µg/mL)	6.72	9.9 (≈ 3.58 µg/mL)	–	–	–	–	–
O=[N+]([O-])c1cn2c(n1)O[C@@H](COc1ccc(-c3ccc(OC(F)(F)F)cc3)nc1)CC2 [compound 94]	0.02 to 0.04 (≈ 0.00873 to 0.0175 µg/mL)	–	1.5 (≈ 0.655 µg/mL)	–	–	–	–	0.024 (≈ 0.0105 µg/mL)
